According to PubChem BioAssay (NCI):
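The concentration for 50% growth inhibition is given as GI50. TGI marks complete inhibition of growth.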

Tests used:
Assay in all cases: DTP human tumour cell line panel, 384-well format; in the data active means GI50 below about 0.43 µM; inactive means the rest
SK-OV-3 ovarian = tested on: SK-OV-3 ovarian
HCT-15 colon = tested on: HCT-15 colon
OVCAR-8 ovarian = tested on: OVCAR-8 ovarian
OVCAR-5 ovarian = tested on: OVCAR-5 ovarian
NCI-H460 NSCLC = tested on: NCI-H460 NSCLC
SF-268 CNS = tested on: SF-268 CNS
MDA-MB-435 melanoma = tested on: MDA-MB-435 melanoma
CCRF-CEM leukemia = tested on: CCRF-CEM leukemia
A549 NSCLC = tested on: A549 NSCLC
IGROV1 ovarian = tested on: IGROV1 ovarian
HS 578T breast = tested on: HS 578T breast
COLO 205 colon = tested on: COLO 205 colon
SK-MEL-2 melanoma = tested on: SK-MEL-2 melanoma

CS(=O)(=O)c1ccc(-c2cnc(NCc3ccco3)n3cnnc23)cc1
> 100 µM: TGI (SK-OV-3 ovarian) | TGI (HCT-15 colon) | TGI (OVCAR-8 ovarian) | TGI (OVCAR-5 ovarian) | TGI (NCI-H460 NSCLC) | TGI (SF-268 CNS) | TGI (MDA-MB-435 melanoma) | TGI (CCRF-CEM leukemia) | TGI (A549 NSCLC) | TGI (IGROV1 ovarian) | TGI (HS 578T breast) | TGI (COLO 205 colon) | TGI (SK-MEL-2 melanoma)
inactive: GI50 (SK-OV-3 ovarian) > 100 µM | GI50 (HCT-15 colon) > 100 µM | GI50 (OVCAR-8 ovarian) > 100 µM | GI50 (OVCAR-5 ovarian) > 100 µM | GI50 (NCI-H460 NSCLC) > 100 µM | GI50 (SF-268 CNS) > 100 µM | GI50 (MDA-MB-435 melanoma) > 87.3 µM | GI50 (CCRF-CEM leukemia) > 85.5 µM | GI50 (A549 NSCLC) > 100 µM | GI50 (IGROV1 ovarian) > 100 µM | GI50 (HS 578T breast) > 100 µM | GI50 (COLO 205 colon) 35.8 µM | GI50 (SK-MEL-2 melanoma) > 100 µM
